According to ChEMBL document CHEMBL5338734, “Anticancer Activity of Region B Capsaicin Analogs” (J Med Chem, 2023):

Tests used:
[1] = tested on: SBcl2; assay: Antiproliferative activity against human SBcl2 cells assessed as inhibition of cell growth incubated for 24 hrs by MTT assay; format: functional, cell-based; details: SBcl2, 24 h
[2] = tested on: MCF7; assay: Antiproliferative activity against human MCF7 cells assessed as inhibition of cell growth incubated for 24 hrs by MTT assay; format: functional, cell-based; details: MCF7, 24 h
[3] = Antiproliferative activity against human SK-MEL-85 cells assessed as inhibition of cell growth incubated for 24 hrs by MTT assay; format: functional, cell-based; details: SK-MEL-85, 24 h
[4] = tested on: SK-MEL-28; assay: Antiproliferative activity against human SK-MEL-28 cells assessed as inhibition of cell growth incubated for 24 hrs by MTT assay; format: functional, cell-based; details: SK-MEL-28, 24 h
[5] = tested on: MDA-MB-231; assay: Antiproliferative activity against human MDA-MB-231 cells assessed as inhibition of cell growth by MTT assay; format: functional, cell-based
[6] = tested on: BT-474; assay: Antiproliferative activity against human BT-474 cells assessed as inhibition of cell growth by MTT assay; format: functional, cell-based
[7] = tested on: MCF7; assay: Antiproliferative activity against human MCF7 cells assessed as inhibition of cell growth by MTT assay; format: functional, cell-based
[8] = tested on: DU-145; assay: Antiproliferative activity against human DU-145 cells assessed as inhibition of cell growth; format: functional, cell-based
[9] = tested on: CAL-27; assay: Antitumor activity against human CAL-27 cells xenografted in mouse assessed as mean tumor volume at 12 mg/kg, ip measured for 4 weeks by hematoxylin and eosin staining based analysis (reference value: 541 […]); format: functional
[10] = tested on: CAL-27; assay: Antitumor activity against human CAL-27 cells xenografted in mouse assessed as fold decrease in tumor size at 12 mg/kg, ip measured for 4 weeks by hematoxylin and eosin staining based analysis relative to control; format: functional
[11] = tested on: T-24; assay: Antiproliferative activity against human T24 cells assessed as inhibition of cell growth measured after 24 hrs by MTT assay; format: functional, cell-based; details: T-24, 24 h
[12] = tested on: 5637; assay: Antiproliferative activity against human 5637 cells assessed as inhibition of cell growth measured after 24 hrs by MTT assay; format: functional, cell-based; details: Homo sapiens, 5637, 24 h
[13] = tested on: Jurkat; assay: Induction of apoptosis in human Jurkat cells assessed as increase in apoptotic cells by propidium iodide staining based flow cytometry; format: functional, cell-based
[14] = tested on: SK-MEL-28; assay: Antiproliferative activity against human SK-MEL-28 cells assessed as inhibition of cell growth measured after 24 hrs by MTT assay; format: functional, cell-based; details: SK-MEL-28, 24 h
[15] = tested on: B16-F10; assay: Antiproliferative activity against B16-F10 cells assessed as inhibition of cell growth measured after 24 hrs by MTT assay; format: functional, cell-based; details: Mus musculus, B16-F10, 24 h
[16] = tested on: HSC-3; assay: Antiproliferative activity against human HSC-3 cells assessed as inhibition of cell growth incubated for 24 hrs by MTS assay; format: functional, cell-based; details: HSC-3, 24 h
[17] = Cytotoxicity against human OKF6/TERT-2 cells assessed as inhibition of cell growth at >7.5 uM incubated for 24 hrs by MTS assay; format: toxicity, cell-based; details: read-out: Activity
[18] = tested on: SCC-9; assay: Antiproliferative activity against human SCC-9 cells assessed as inhibition of cell growth incubated for 24 hrs by MTS assay; format: functional, cell-based; details: SCC-9, 24 h
[19] = tested on: CAL-27; assay: Antiproliferative activity against human CAL-27 cells assessed as inhibition of cell growth incubated for 24 hrs by MTS assay; format: functional, cell-based; details: CAL-27, 24 h
[20] = tested on: SCC-4; assay: Antiproliferative activity against human SCC-4 cells assessed as inhibition of cell growth incubated for 24 hrs by MTS assay; format: functional, cell-based; details: SCC-4, 24 h
[21] = tested on: MDA-MB-231; assay: Antiproliferative activity against human MDA-MB-231 cells assessed as inhibition of cell growth incubated for 24 hrs by MTS assay; format: functional, cell-based; details: MDA-MB-231, 24 h
[22] = tested on: PC-3; assay: Antiproliferative activity against human PC-3 cells assessed as inhibition of cell growth incubated for 24 hrs by MTS assay; format: functional, cell-based; details: PC-3, 24 h
[23] = tested on: CAL-27; assay: Antiproliferative activity against human CAL-27 cells assessed as reduction of cell growth at 500 uM incubated for 24 hrs by MTS assay; format: functional; set-up: scale not given: the % may be the effect or the level left
[24] = tested on: HeLa; assay: Antiproliferative activity against human HeLa cells assessed as inhibition of cell growth incubated for 24 hrs by MTS assay; format: functional, cell-based
[25] = tested on: CAL-27; assay: Antiproliferative activity against human CAL-27 cells assessed as reduction of cell growth at 500 uM incubated for 24 hrs in presence of gefitinib by MTS assay; format: functional; set-up: scale not given: the % may be the effect or the level left
[26] = tested on: NCI-H460; assay: Antiproliferative activity against human NCI-H460 cells assessed as inhibition of cell growth incubated for 24 hrs by MTS assay; format: functional, cell-based; details: NCI-H460, 24 h
[27] = tested on: CAL-27; assay: Antiproliferative activity against human CAL-27 cells assessed as reduction of cell growth at 500 uM incubated for 24 hrs in presence of cisplatin by MTS assay; format: functional; set-up: scale not given: the % may be the effect or the level left
[28] = tested on: CAL-27; assay: Antiproliferative activity against human CAL-27 cells assessed as reduction of cell growth at 100 nM incubated for 24 hrs by MTS assay; format: functional; set-up: scale not given: the % may be the effect or the level left
[29] = tested on: NCI-H1299; assay: Antiproliferative activity against human NCI-H1299 cells assessed as inhibition of cell growth measured after 24 hrs by MTT assay; format: functional, cell-based; details: NCI-H1299, 24 h

## O=S(=O)(NCc1ccc2c(c1)OCO2)c1ccccc1
[1]
  IC50: 17.5 µM
[2]
  IC50: 32 µM
[3]
  IC50: 15.7 µM
[4]
  IC50: 19.1 µM

## CCOC(=O)C1=C(c2ccccc2)NC(C)=C(C(=O)SCCOC)C1CC (stereo not given)
[5]
  IC50: 40.8 µM
[6]
  IC50: 10.6 µM
[7]
  IC50: 3 µM

## Oc1cc2c(cc1O)CN(C(=S)NCCc1ccc(Cl)cc1)CCC2 [CAPSAZEPINE]
[8]
  IC50: 54 µM
[9]
  Activity: 269 mm3
[10]
  fold change (FC): 2

## C=C(C)[C@]12C[C@@H](C)[C@@]34O[C@](Cc5ccccc5)(O[C@@H]1[C@@H]3C=C(COC(=O)Cc1ccc(O)c(OC)c1)C[C@]1(O)C(=O)C(C)=C[C@@H]41)O2 [RESINIFERATOXIN]
[11]
  IC50: ~21.4 µM
[12]
  IC50: 19.9 µM

## COc1cc(COC(=O)CCCCCC(C)C)ccc1O
[13]
  IC50: ~70 µM

## CCCCCCCCCCC(=O)OCc1ccc2c(c1)OCO2
[14]
  IC50: 85 µM
[15]
  IC50: 87 µM

## Oc1cc2c(cc1O)CN(C(=S)NCCc1ccc(Cl)cc1)CC2
[16]
  IC50: 2.5 µM
[17]
  inhibition at 24 h: 20%
[9]
  Activity: 211 mm3
[18]
  IC50: 2.5 µM
[19]
  IC50: 2.5 µM
[10]
  fold change (FC): 2.6
[20]
  IC50: 2.5 µM

## Oc1cc2c(cc1O)C(c1ccccc1)N(C(=S)NCCc1ccc(Cl)cc1)CC2 (stereo not given)
[16]
  IC50: 1 µM
[21]
  IC50: 2.5 µM
[22]
  IC50: 1 µM
[17]
  inhibition at 24 h: 20%
[23]
  Activity: 20%
[24]
  IC50: ~5 µM
[9]
  Activity: 333 mm3
[18]
  IC50: 1 µM
[25]
  Activity: ~80%
[19]
  IC50: 1 µM
[10]
  fold change (FC): 4
[20]
  IC50: 1 µM
[26]
  IC50: 7.5 µM
[27]
  Activity: 95%

## COc1cc2ncnc(Nc3ccc(F)c(Cl)c3)c2cc1OCCCN1CCOCC1 [GEFITINIB]
[28]
  Activity: 50%

## Oc1cc2c(cc1O)C(c1ccccc1)N(C(=S)NCc1ccccc1)CC2 (stereo not given)
[16]
  IC50: 20 µM
[17]
  inhibition at 24 h: 20%
[9]
  Activity: 134 mm3
[18]
  IC50: 20 µM
[19]
  IC50: 20 µM
[10]
  fold change (FC): 1.6
[20]
  IC50: 20 µM

## COc1ccc(CC(=O)OCc2ccc3c(c2)OCO3)cc1
[15]
  IC50: 117 µM
[29]
  IC50: 187 µM

## COc1cc(CNC(=O)CCCC/C=C/C(C)C)ccc1O [CAPSAICIN]
[13]
  IC50: ~128 µM
[15]
  IC50: 117 µM
[2]
  IC50: ~53 µM
[29]
  IC50: ≥ 200 µM
